Patent US20110251069A1, “ISOXAZOLE DERIVATIVES FOR USE AS PLANT GROWTH REGULATORS” (SYNGENTA CROP PROTECTION LLC, priority 2008, published 2011)

Tested on: wheat plants cultivar (cv.). Riband
Assay: Biological evaluation of plant growth regulation effects on wheat
Type: in vivo
Conditions: 200 ppm; 2 weeks old wheat plants cv. Riband sprayed with formulated compound; assessed after 8 days at 22° C. and 80% r. h. in a greenhouse
Method: Biological Evaluation of Plant Growth Regulation Effects on Wheat
2 weeks old wheat plants cultivar (cv.). Riband were treated with the formulated test compound in a spray chamber. After an incubation period of 8 days at 22° C. and 80% relative humidity (r. h.) in a greenhouse, the plant growth regulating effects were assessed.

## OC(c1cccnc1)c1c(-c2ccccc2Cl)csc1-c1ccc(F)cc1F (stereo not shown) [Compound 175, 2-(2,4-Difluorophenyl)-4-(2-chlorophenyl)-3-[(3-pyridyl)hydroxymethyl]-thiophene]
  plant growth regulating effects: plant height decrease
